Our source for the inhibition and IC50 values is patent US20250368649A1, “TETRAHYDROPYRIDOPYRIMIDINE PAN-KRAS INHIBITORS” (Mirati Therapeutics, Inc., priority 2022, published 2025).

By inhibition is commonly meant the drop in the measured response relative to a control, in per cent. A word on the IC50: it is the point on the concentration scale where inhibition reaches its midpoint.

One experiment relates to HCT116 cells. The experiment in a line: Inhibition of KRas-mediated phosphorylation of ERK (Cisbio HTRF pERK), HCT116 cells. In kind it is cell-based. The conditions noted are these: Homo sapiens, HCT-116, single point at 100 nM, 3 hrs compound incubation. Background: TR-FRET usually uses a lanthanide donor and a delayed reading to cut background.
For the next experiment, the target named is KRas G12S (Homo sapiens, UniProt P01116, G12S). In kind it is binding. The conditions noted are these: for IC50: TR-FRET displacement, read-out: Binding to KRas (IC50 nM) G12S.
For another experiment, the target named is KRas G12V (Homo sapiens, UniProt P01116, G12V). Nature of the experiment: biochemical. The conditions noted are these: Binding to KRas (IC50 nM) G12V, TR-FRET displacement, KRas G12V.
The target in the next experiment is KRas WT (Homo sapiens, UniProt P01116). Nature of the experiment: KRas binding assay (TR-FRET displacement), KRas WT. The following applies: for IC50: TR-FRET displacement.
Another experiment deals with ASPC1 cells. The experiment in a line: Inhibition of KRas-mediated phosphorylation of ERK (Cisbio HTRF pERK), ASPC1 cells. It is filed as cell-based. The following applies: Homo sapiens, AsPC-1 cells; for IC50: ASPC1, 3 h, 3 hr compound incubation; for inhibition at 0.1 µM: ASPC1, single point at 100 nM, 3 hrs compound incubation.
For a further experiment, the target named is KRas G12C (Homo sapiens, UniProt P01116, G12C). In kind it is binding. The conditions noted are these: for IC50: TR-FRET displacement, read-out: Binding to KRas (IC50 nM) G12C.
In another experiment the test system is H358 cells. Nature of the experiment: Inhibition of KRas-mediated phosphorylation of ERK (Cisbio HTRF pERK), H358 cells. It is filed as cell-based. The following applies: Homo sapiens; for inhibition at 0.1 µM: NCI-H358, single point at 100 nM, 3 hrs compound incubation; for IC50: NCI-H358, 3 h, 3 hr compound incubation.
The next experiment concerns the target KRas Q61H (Homo sapiens, UniProt P01116, Q61H). Nature of the experiment: KRas binding assay (TR-FRET displacement), KRas Q61H. The following applies: for IC50: TR-FRET displacement.
Another experiment deals with H460 cells. Nature of the experiment: Inhibition of KRas-mediated phosphorylation of ERK (Cisbio HTRF pERK), H460 cells. It is filed as cell-based. The conditions noted are these: Homo sapiens, NCI-H460, single point at 100 nM, 3 hrs compound incubation.
Another experiment concerns H727 cells. The experiment in a line: Inhibition of KRas-mediated phosphorylation of ERK (Cisbio HTRF pERK), H727 cells. In kind it is cell-based. The following applies: Homo sapiens; for IC50: NCI-H727, 3 h, 3 hr compound incubation; for inhibition at 0.1 µM: NCI-H727, single point at 100 nM, 3 hrs compound incubation.
Another experiment has as its system A549 cells. Nature of the experiment: Inhibition of KRas-mediated phosphorylation of ERK (Cisbio HTRF pERK), A549 cells. The following applies: Homo sapiens; for inhibition at 0.1 µM: single point at 100 nM, 3 hrs compound incubation; for IC50: A549, 3 h, 3 hr compound incubation. In kind it is cell-based.
In a further experiment the target is KRas G12R (Homo sapiens, UniProt P01116, G12R). The experiment in a line: biochemical. The following applies: Binding to KRas (IC50 nM) G12R, TR-FRET displacement, KRas G12R.
For another experiment, the target named is KRas G12D (Homo sapiens, UniProt P01116, G12D). Nature of the experiment: biochemical. The following applies: Binding to KRas (IC50 nM) G12D, TR-FRET displacement, KRas G12D.
For the next experiment, the target named is KRas G13D (Homo sapiens, UniProt P01116, G13D). In kind it is binding. The following applies: for IC50: TR-FRET displacement, read-out: Binding to KRas (IC50 nM) G13D.
For another experiment, the target named is KRas G12A (Homo sapiens, UniProt P01116, G12A). In kind it is binding. The conditions noted are these: for IC50: TR-FRET displacement, read-out: Binding to KRas (IC50 nM) G12A.
The subject of a further experiment is PSN1 cells. The experiment in a line: Inhibition of KRas-mediated phosphorylation of ERK (Cisbio HTRF pERK), PSN1 cells. It is filed as cell-based. The conditions noted are these: Homo sapiens, PSN1, 3 h, 3 hour compound incubation, Cisbio pERK HTRF. Here is the method: (§1) Inhibition of KRas Phosphorylation of ERK (HTRF) by Exemplary Compounds of Formula (I) Cisbio HTRF Advanced pERK Assay Catalog #64AERPEH • Cells: MKN1, PSN1 • Procedure: • Day 1: Seed 6,000 cells/well -25 µl/well in 384-well white solid bottom plate; RPM1_10% FBS.

Another experiment deals with MKN1 cells. Nature of the experiment: Inhibition of KRas-mediated phosphorylation of ERK (Cisbio HTRF pERK), MKN1 cells. It is filed as cell-based. The conditions noted are these: Homo sapiens. Here is the method: as §1
[1] abbreviates: MKN-1, 3 hour compound incubation, Cisbio pERK HTRF.
The mark [2] stands for this setting: MKN-1, 3 hr compound incubation.

KRas G13D, sequence (P01116 1-169 isoform P01116-2 G13D): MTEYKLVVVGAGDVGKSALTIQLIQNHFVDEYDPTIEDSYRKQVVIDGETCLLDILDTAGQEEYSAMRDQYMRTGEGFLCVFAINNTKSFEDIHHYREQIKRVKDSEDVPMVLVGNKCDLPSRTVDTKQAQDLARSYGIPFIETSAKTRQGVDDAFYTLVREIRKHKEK
KRas Q61H, sequence (P01116 1-169 isoform P01116-2 Q61H): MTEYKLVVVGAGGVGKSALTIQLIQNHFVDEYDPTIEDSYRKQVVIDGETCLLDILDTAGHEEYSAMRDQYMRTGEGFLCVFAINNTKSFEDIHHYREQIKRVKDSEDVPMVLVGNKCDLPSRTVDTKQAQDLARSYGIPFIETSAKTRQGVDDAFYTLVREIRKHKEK
KRas G12C, sequence (P01116 1-169 isoform P01116-2 G12C): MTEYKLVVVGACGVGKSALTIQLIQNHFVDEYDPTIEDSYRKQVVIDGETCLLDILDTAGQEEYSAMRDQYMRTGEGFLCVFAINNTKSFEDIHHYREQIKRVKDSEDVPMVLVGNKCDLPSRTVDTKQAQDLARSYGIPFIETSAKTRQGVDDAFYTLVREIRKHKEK
KRas G12D, sequence (P01116 1-169 isoform P01116-2 G12D): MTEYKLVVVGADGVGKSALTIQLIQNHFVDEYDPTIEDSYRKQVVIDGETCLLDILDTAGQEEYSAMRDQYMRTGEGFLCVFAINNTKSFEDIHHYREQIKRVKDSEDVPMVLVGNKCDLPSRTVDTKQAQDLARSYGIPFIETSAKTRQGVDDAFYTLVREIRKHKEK
KRas G12V, sequence (P01116 1-169 isoform P01116-2 G12V): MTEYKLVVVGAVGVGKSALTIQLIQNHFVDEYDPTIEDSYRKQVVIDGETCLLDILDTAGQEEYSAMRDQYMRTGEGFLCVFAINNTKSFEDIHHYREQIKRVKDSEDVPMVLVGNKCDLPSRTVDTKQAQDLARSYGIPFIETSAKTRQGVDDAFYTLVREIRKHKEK
KRas G12S, sequence (P01116 1-169 isoform P01116-2 G12S): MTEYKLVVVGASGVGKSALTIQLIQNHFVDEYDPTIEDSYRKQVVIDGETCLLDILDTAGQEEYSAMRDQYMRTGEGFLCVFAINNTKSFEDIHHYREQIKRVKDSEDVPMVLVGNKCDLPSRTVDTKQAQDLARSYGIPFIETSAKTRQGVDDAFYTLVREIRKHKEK
KRas G12A, sequence (P01116 1-169 isoform P01116-2 G12A): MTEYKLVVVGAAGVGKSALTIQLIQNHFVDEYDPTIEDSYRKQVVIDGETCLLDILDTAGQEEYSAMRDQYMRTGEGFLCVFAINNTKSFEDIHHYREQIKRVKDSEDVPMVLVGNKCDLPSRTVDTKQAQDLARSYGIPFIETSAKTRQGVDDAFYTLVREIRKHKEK
KRas WT, sequence (P01116 1-169 isoform P01116-2): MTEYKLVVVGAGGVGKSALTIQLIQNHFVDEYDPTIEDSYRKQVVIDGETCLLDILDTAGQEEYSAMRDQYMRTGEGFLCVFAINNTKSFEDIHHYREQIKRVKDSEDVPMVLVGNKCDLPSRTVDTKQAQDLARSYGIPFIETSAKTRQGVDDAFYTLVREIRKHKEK
KRas G12R, sequence (P01116 1-169 isoform P01116-2 G12R): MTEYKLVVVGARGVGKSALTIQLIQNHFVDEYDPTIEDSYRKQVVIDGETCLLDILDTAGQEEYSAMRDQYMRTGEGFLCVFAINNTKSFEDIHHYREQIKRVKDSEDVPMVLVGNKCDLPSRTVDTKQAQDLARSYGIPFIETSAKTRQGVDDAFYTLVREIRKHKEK

`CCc1c(F)ccc2cc(O)cc(N3CCc4c(nc(OC[C@@]56CCCN5C[C@H](F)C6)nc4N4CCCc5nc(C(=O)N(C)C)sc5C4)C3)c12` [Example 304, 5-(7-(8-ethyl-7-fluoro-3-hydroxynaphthalen-1-yl)-2-(((2R,7aS)-2-fluorohexahydro-1H-pyrrolizin-7a-yl)methoxy)-5,6,7,8-tetrahydropyrido[3,4-d]pyrimidin-4-yl)-N,N-dimethyl-5,6,7,8-tetrahydro-4H-thiazolo[5,4-c]azepine-2-carboxamide]: the inhibition at 0.1 µM in the experiment on HCT116 cells was -15%; with H358 cells it was 43%; in the experiment on H460 cells it was 25%; in the experiment with A549 cells, 33%. Moreover, the inhibition at 0.01 µM was found to be 77% on KRas G12S (single point, 10 nM compound, read-out: Binding to KRas (% inhibition at 10 nM) G12S); 70% on KRas WT (single point, 10 nM compound); 83% at KRas G12C (single point, 10 nM compound, read-out: Binding to KRas (% inhibition at 10 nM) G12C); 73% at KRas Q61H (single point, 10 nM compound); 72% on KRas G13D (single point, 10 nM compound, read-out: Binding to KRas (% inhibition at 10 nM) G13D); 63% at KRas G12A (single point, 10 nM compound, read-out: Binding to KRas (% inhibition at 10 nM) G12A). The IC50 is 3 nM on KRas G12V; 54 nM in the experiment on ASPC1 cells (Cisbio pERK HTRF); 180 nM in the experiment with H727 cells (Cisbio pERK HTRF); 3 nM on KRas G12R; 3 nM on KRas G12D.

Turning to `CCc1c(F)ccc2cc(O)cc(N3CCc4c(nc(OC[C@@]56CCCN5C[C@H](F)C6)nc4NCC4CNS(=O)(=O)N4)C3)c12` (stereo partly drawn) [Example 410, 3-(((7-(8-ethyl-7-fluoro-3-hydroxynaphthalen-1-yl)-2-(((2R,7aS)-2-fluorohexahydro-1H-pyrrolizin-7a-yl)methoxy)-5,6,7,8-tetrahydropyrido[3,4-d]pyrimidin-4-yl)amino)methyl)-1,2,5-thiadiazolidine 1,1-dioxide], the IC50 at KRas G12V is 4 nM; in the experiment with ASPC1 cells (Cisbio pERK HTRF) it was above 10000 nM; with H727 cells (Cisbio pERK HTRF), 1670 nM; in the experiment with PSN1 cells it was above 10000 nM; on KRas G12R, 7 nM; in the experiment on MKN1 cells (setting [1]) it was 217 nM. In addition, at KRas G12D, the IC50 worked out at 18 nM.

Take `CCc1c(F)ccc2cc(O)cc(N3CCc4c(nc(OC[C@@]56CCCN5C[C@H](F)C6)nc4NCC4CC(=O)NC4=O)C3)c12` (stereo partly drawn) [Example 414, 3-(((7-(8-ethyl-7-fluoro-3-hydroxynaphthalen-1-yl)-2-(((2R,7aS)-2-fluorotetrahydro-1H-pyrrolizin-7a(5H)-yl)methoxy)-5,6,7,8-tetrahydropyrido[3,4-d]pyrimidin-4-yl)amino)methyl)pyrrolidine-2,5-dione]: the IC50 at KRas G12V is 3 nM; in the experiment with ASPC1 cells (Cisbio pERK HTRF) it was 3000 nM; in the experiment with H727 cells (Cisbio pERK HTRF), 935 nM; with PSN1 cells, 7540 nM; at KRas G12R, 11 nM; in the experiment with MKN1 cells (setting [1]), 28.4 nM. The compound also displayed an IC50 on KRas G12D of 8 nM.

As to `CCc1c(F)ccc2cc(O)cc(N3CCc4c(nc(OCC5(CN(C)C)CC5)nc4N4C[C@@H]5C[C@H](C4)[C@H](O)C5)C3)c12` [Example 431, (1R,5R,6R)-3-(2-((1-((dimethylamino)methyl)cyclopropyl)methoxy)-7-(8-ethyl-7-fluoro-3-hydroxynaphthalen-1-yl)-5,6,7,8-tetrahydropyrido[3,4-d]pyrimidin-4-yl)-3-azabicyclo[3.2.1]octan-6-ol], the IC50 at KRas G12V was 2 nM; in the experiment with ASPC1 cells (Cisbio pERK HTRF), 1410 nM; in the experiment with H727 cells (Cisbio pERK HTRF) it was 1100 nM; in the experiment on PSN1 cells, above 10000 nM; on KRas G12R, below 2 nM; in the experiment on MKN1 cells (setting [1]), 158 nM. The compound further yielded an IC50 at KRas G12D of 6 nM.

Turning to `CC1(O)COCCN(c2nc(OCC34CCCN3CCC4)nc3c2CCN(c2cc(O)cc(Cl)c2C2CC2)C3)C1` (stereo not drawn) [Example 436, 4-(7-(3-chloro-2-cyclopropyl-5-hydroxyphenyl)-2-((tetrahydro-1H-pyrrolizin-7a(5H)-yl)methoxy)-5,6,7,8-tetrahydropyrido[3,4-d]pyrimidin-4-yl)-6-methyl-1,4-oxazepan-6-ol], the inhibition at 0.1 µM is 5% in the experiment with HCT116 cells; -12% with ASPC1 cells; 10% in the experiment with H358 cells; -4% in the experiment on H460 cells; 12% in the experiment on H727 cells; 3% in the experiment on A549 cells. For the same compound, the IC50 worked out at 10 nM at KRas G12S; 8 nM at KRas G12V; 10 nM on KRas WT; 1760 nM in the experiment with ASPC1 cells (Cisbio pERK HTRF); 8 nM at KRas G12C; 10 nM at KRas Q61H. The IC50 in the experiment on H727 cells (Cisbio pERK HTRF) amounted to 2950 nM; at KRas G12R, 17 nM; at KRas G12D it was 7 nM; on KRas G13D it was 10 nM; at KRas G12A it was 11 nM.

For the compound `Cc1cc2[nH]ncc2c(N2CCc3c(nc(OCC4(CN(C)C)CC4)nc3N3CCC[C@]4(C3)NC(=O)NC4=O)C2)c1C` [Example 462, (R)-7-(7-(5,6-dimethyl-1H-indazol-4-yl)-2-((1-((dimethylamino)methyl)cyclopropyl)methoxy)-5,6,7,8-tetrahydropyrido[3,4-d]pyrimidin-4-yl)-1,3,7-triazaspiro[4.5]decane-2,4-dione], the inhibition at 0.1 µM with HCT116 cells was 3%; with ASPC1 cells it was -6%; in the experiment on H358 cells, 1%; in the experiment with H460 cells it was 9%; in the experiment on H727 cells, -8%; with A549 cells, 8%. For the same compound, the IC50 on KRas G12S is 9 nM; on KRas G12V, 7 nM; on KRas WT it was 9 nM; with ASPC1 cells (Cisbio pERK HTRF) it was above 10000 nM; at KRas G12C it was 6 nM; on KRas Q61H, 10 nM. Also, the IC50 with H727 cells (Cisbio pERK HTRF) was above 10000 nM; on KRas G12R, 7 nM; on KRas G12D, 16 nM; on KRas G13D, 9 nM; on KRas G12A, 10 nM.

For the compound `C=C1CN2CCCC2(COc2nc3c(c(N4CCCC5(CC(O)C5)C4)n2)CCN(c2cc(O)cc4ccc(F)c(CC)c24)C3)C1` (stereo not drawn) [Example 660, 6-(7-(8-ethyl-7-fluoro-3-hydroxynaphthalen-1-yl)-2-((2-methylenetetrahydro-1H-pyrrolizin-7a(5H)-yl)methoxy)-5,6,7,8-tetrahydropyrido[3,4-d]pyrimidin-4-yl)-6-azaspiro[3.5]nonan-2-ol], the IC50 at KRas G12S is below 2 nM; at KRas G12V it was below 2 nM; at KRas WT, below 2 nM; in the experiment with ASPC1 cells, 261 nM; at KRas G12C, below 2 nM; in the experiment with H358 cells, 25 nM. Besides, the IC50 was determined as 204 nM with H727 cells, 131 nM in the experiment on A549 cells, 28.2 nM in the experiment with MKN1 cells (setting [2]) and 3 nM at KRas G12D.

For the compound `C=C1CN2CCCC2(COc2nc3c(c(N4CC5CC(O)CC4C5)n2)CCN(c2cc(O)cc4ccc(F)c(CC)c24)C3)C1` (stereo not drawn) [Example 661, 6-(7-(8-ethyl-7-fluoro-3-hydroxynaphthalen-1-yl)-2-((2-methylenetetrahydro-1H-pyrrolizin-7a(5H)-yl)methoxy)-5,6,7,8-tetrahydropyrido[3,4-d]pyrimidin-4-yl)-6-azabicyclo[3.2.1]octan-3-ol], the IC50 was 21 nM at KRas G12S; 33 nM on KRas G12V; 25 nM on KRas WT; above 10000 nM in the experiment with ASPC1 cells; 32 nM on KRas G12C; 864 nM in the experiment with H358 cells. Besides, the IC50 in the experiment on H727 cells was 4780 nM; in the experiment with A549 cells, 3800 nM; in the experiment on MKN1 cells (setting [2]), 1380 nM; on KRas G12D it was 143 nM.
